Test system: LNCaP tumor-bearing SCID mice
Assay: Biodistribution at 1 h p.i. with competition (co-injected PMPA)
Format: in vivo
Details: co-injected with PMPA (8 mg/kg)
Method: FIG. 11: Biodistribution [% ID/g] of ^18F-rhPSMAs co-injected with PMPA (8 mg/kg) at 1 h p.i in LNCaP tumor-bearing SCID mice. Data are expressed as mean±SD (n=3).

CC(C)(C)[Si](F)(c1ccc(C(=O)NC[C@@H](NC(=O)CC[C@@H](C(=O)O)N2CCN(CC(=O)[O-])CCN(CC(=O)[O-])CCN(CC(=O)[O-])CC2)C(=O)N[C@H](CCCCNC(=O)CCC(=O)NCCC[C@@H](NC(=O)CC[C@H](NC(=O)N[C@@H](CCC(=O)O)C(=O)O)C(=O)O)C(=O)O)C(=O)O)cc1)C(C)(C)C.[Ga+3] [rhPSMA7.3, [^19F][^natGa]D-Dap-S-DOTAGA-rhPSMA7] gave a Biodistribution adrenals of 0.07 ± 0.09 % ID/g, a Biodistribution blood of 0.55 ± 0.14 % ID/g and a Biodistribution bone of 0.34 ± 0.22 % ID/g. The Biodistribution heart was 0.26 ± 0.04 % ID/g, the Biodistribution intestine was 0.94 ± 0.97 % ID/g and the Biodistribution kidneys was 15.5 ± 2.2 % ID/g. It also gave a Biodistribution liver of 0.46 ± 0.14 % ID/g, a Biodistribution lung of 0.69 ± 0.10 % ID/g and a Biodistribution muscle of 0.09 ± 0.02 % ID/g. It also gave a Biodistribution pancreas of 0.11 ± 0.02 % ID/g, a Biodistribution spleen of 0.35 ± 0.02 % ID/g and a Biodistribution stomach of 0.76 ± 0.74 % ID/g. For the same molecule, the Biodistribution tumor (LNCaP tumor) was 1.5 ± 0.4 % ID/g.
